Test results from US20240299591A1, “Antimicrobial Peptides and Their Use” (priority 2021, published 2024).
≈ marks a conversion by molar mass, not a printed value. Where a SMILES comes first, the peptide text is derived from it.

How the values were obtained:
[1] = Viability of reconstructed cornea-like epithelium (eye irritation model); assay type: cell-based; details: human, reconstructed cornea-like epithelium (RhCE, EpiOcular™)
Procedure: (§1) FIG. 4a is a graph of the viability reconstructed cornea-like epithelium (RhCE, EpiOcular™) after incubation with MFIGA001. NC=Negative Control; PC=Positive Control. FIG. 4b is a graph of the viability reconstructed cornea-like epithelium (RhCE, EpiOcular™) after incubation with 10 µM of MFIGA001a and MFIGAF001b. NC=Negative Control; PC=Positive Control; A2=MFIGAF001a; and B1=MFIGAF001b.
(§2) MFIGAF001 was also assessed independently by a CRO (Evotec) in an OECD compliant reconstructed cornea-like epithelial cell model (RhCE, EpiOcular™).

[2] = tested on: reconstructed cornea-like epithelium (RhCE, EpiOcular™); test: as above; assay type: cell-based
Procedure: as §1, §2

F. oxysporum = test: Minimum inhibitory concentration, F. oxysporum; assay type: cell-based, Fusarium oxysporum; details: 5 × 10^5, 10% Vogel's
Procedure: F. oxysporum was grown in liquid potato dextrose broth (PDB) at 28° C. with shaking (170 rpm) for 5 days. The suspension was filtered through folded Miracloth (4 layers) and centrifuged for 10 min at RT. The supernatant was discard and the pellet was resuspend in 1.5 mL of sterile dH2O and quantified.

A. fumigatus (MFIG001) = test: Minimum inhibitory concentration, A. fumigatus; assay type: cell-based, Aspergillus fumigatus; details: 5 × 10^5, 10% Vogel's
Procedure: Aspergillus fumigatus strains were grown on Sabouraud dextrose agar (SAB agar) at 37° C. for 3 days. Conidia were collected in phosphate-buffered saline supplemented with 0.1% tween-20 (PBST) by gently scraping a spatula over the fungal colony surface. The spore solutions were then passed through autoclaved Miracloth to remove any hyphal residues and stored at 4° C. The spores were counted and the concentrations was determined in the same was as described for N. crassa.

S. aureus = assay type: cell-based, Staphylococcus aureus
Procedure: Bacteria strains used were grown on Lysogeny Broth (LB) agar at 37° C. for 1 day, and were harvest using sterile inoculation loop by taking a single colony and resuspending in PBST. The concentration of cells was quantified using a haemocytometer. For the determination of the minimum inhibitory concentration, cell density was adjusted to 10^8 cells/mL with 20% liquid LB medium.

Fusarium oxysporum = assay type: cell-based; details: 24 h
Procedure: Dose dependent inhibition of fungal growth by all non-labelled peptides (indicated by IC50 values) was determined via this methodology. The assays were performed using Nunc 262162 U96 polystyrene round bottomed clear plates (www.nuncbrand.com).
When testing the peptides against A. fumigatus, peptides at different concentrations were mixed with A. fumigatus conidia to reach a final volume of 100 μL per well. The final conidial concentration was 5×10^5 cells/mL in 10% Vogel's medium. After 24 h of incubation at 37° C. in 96 well plates, fungal growth with the different peptide concentrations was determined by measurement of the optical density at 610 nm in a TriStar LB 941 Multimode Microplate Reader. The IC50 values were determined using four parameter logistic regression formula provided by Sigma Plot 10.0. Values are represented as means±SEM from two independent experiments (n=3).
When testing the peptides against N. crassa and F. oxysporum, experiments were carried as described above apart from the incubation temperature was changed to 25° C. for N. crassa and 35° C. for F. oxysporum.
The IC50 of the fluorescently labelled peptides cannot be accurately determined using the optical density method described in the last section. This is because the fluorophore structures absorbed light at 610 nm which was the wavelength used for the optical density measurements. In order to overcome this, the BacTiter-Glo™ Microbial Cell Viability Assay kit purchased from Promega was used. The BacTiter-Glo™ Reagent relies on the properties of a proprietary thermostable luciferase (Ultra-Glo™ Recombinant Luciferase) and a proprietary formulation for extracting ATP from fungal cells which will generates a ‘glow-type’ luminescent signal. This is produced by the luciferase reaction shown in Scheme 1, which has a signal half-life of over 30 min depending on the experimental conditions. The luminescent signal is proportional to the amount of ATP present, which is directly proportional to the number of living cells in culture.
The IC50 assays for all fluorescently labelled peptides were performed using Greiner CELLSTAR white polystyrene wells flat bottomed 96 well plates. The incubation conditions remained the same for the optical density measurement described in the previous section. Once the incubation procedure was finished, the plate was equilibrated to room temperature. A mixture of BacTiter-Glo™ buffer and substrate was then added to the plate (100 μL per well). The plate was shaken for 5 min and read using the Tristar […] luminometer. Data analysis was performed using Sigma Plot 10.0. All values shown are presented as means±SEM from two independent experiments (n=3).

A. fumigatus = test: Live cell imaging of A. fumigatus in co-cultures with A549; assay type: cell-based, Aspergillus fumigatus; details: 2.5 µM, 10 min after addition, 37° C. in RPMI

SMILES: N=C(N)NCCC[C@@H]1NC(=O)CNC(=O)[C@H](Cc2c[nH]c3ccccc23)NC(=O)[C@H](Cc2ccccc2)NC(=O)[C@H](Cc2c[nH]c3ccccc23)NC(=O)[C@@H](Cc2ccccc2)NC(=O)[C@H](CCCCN)NC(=O)[C@H](CCCCN)NC1=O [MFIGAF001, Cyclo(Arg-Lys-Lys-phe-Trp-Phe-Trp-Gly)] (HELM PEPTIDE1{F.W.G.R.K.K.[dF].W}$PEPTIDE1,PEPTIDE1,1:R1-8:R2$$$V2.0)
- viability at 100 µg/mL [1]: 87.3%
- viability at 200 µg/mL [1]: 87.2%
- viability at 400 µg/mL [1]: 88.6%
- viability at 500 µg/mL [1]: 93.7%
- Toxicity, reconstructed cornea-like epithelium (FIG. 4) [2]: no obvious toxicity
- MIC (F. oxysporum): 6.25 µM (≈ 7.1 µg/mL)
- MIC (A. fumigatus (MFIG001)): 5 µM (≈ 5.68 µg/mL)
- Antibacterial activity against Staphylococcus aureus (S. aureus): Antibacterial activity
- MIC (S. aureus): 15.6 µM (≈ 17.7 µg/mL)
- IC50 Fusarium oxysporum (Fusarium oxysporum): 1.9 µg/mL (≈ 1.67 µM)
- Selective labelling of A. fumigatus over A549 (A. fumigatus): selectively labels A. fumigatus
